# From patent US20250136658A1, “ANTICONVULSANT AND NEUROPROTECTIVE AGENT” (THE UAB RESEARCH FOUNDATION, priority 2022, published 2025)
# How the values were obtained:
# [1] = biological target: T1, GST-Nrb331-453 and [35S]-labeled A1R202-326 (A1R-neurabin interaction) (Homo sapiens, UniProt Q9ULJ8); experiment: In vitro GST competition pull-down; assay type: binding; conditions: peptide 0.1 μg/μl
# T1 construct: made in house
# T1 sequence (Q9ULJ8 331-453): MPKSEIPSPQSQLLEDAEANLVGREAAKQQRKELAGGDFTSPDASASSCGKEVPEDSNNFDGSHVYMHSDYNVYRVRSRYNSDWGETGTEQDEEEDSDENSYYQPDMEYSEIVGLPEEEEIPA
# From the text: FIG. 5A is a competition pull-down assay testing the abilities of A1R 3i loop (3iL) and C-tail (CT) peptides in blocking the interaction between GST-Nrb331-453 and [^35S]-labeled A1R202-326. […] A1R202-326 pulled down by GST-Nrb331-453. Free probe represents 1/10 of the input in each reaction.
# FIG. 5B is a competition pull-down assay testing the abilities of A1R 3i loop (3iL) and C-tail (CT) peptides in blocking the interaction between GST-Nrb331-453 and [^35S]-labeled A1R202-326. In the graphical representation, quantitation of the amount of [^35S] A1R202-326 pulled down by GST-Nrb331-453 is shown. Free probe represents 1/10 of the input in each reaction. * represents p<0.05 vs. BSA control by one-way ANOVA Dunnett's multiple comparisons test. N=3/group.
# Preparation of GST fusion proteins, synthesis of [^35S]-labeled in vitro translated probes, and pull-down assays were performed as described previously (See, for example, Chen Y, Booth C, Wang H, Wang R X, Terzi D, Zachariou V, et al. Effective Attenuation of Adenosine A1R Signaling by Neurabin Requires Oligomerization of Neurabin. Mol Pharmacol. 2017; 92 (6): 630-9; and Chen Y, Liu Y, Cottingham C, McMahon L, Jiao K, Greengard P, et al. Neurabin scaffolding of adenosine receptor and RGS4 regulates anti-seizure effect of endogenous adenosine. J Neurosci. 2012, 32 (8): 2683-95). […]
# PTZ-induced seizures = experiment: PTZ-induced seizure in WT and neurabin null mice; assay type: in vivo
# Protocol: (§1) Induction and evaluation of seizure were performed as described previously (See, for example, Chen Y, Liu Y, Cottingham C, McMahon L, Jiao K, Greengard P, et al. Neurabin scaffolding of adenosine receptor and RGS4 regulates anti-seizure effect of endogenous adenosine. J Neurosci. 2012, 32 (8): 2683-95). Ten to twelve week-old male mice were injected (i.p.) with kainate (Sigma) at 20 or 25 mg/kg (dissolved in saline), together with or without DPCPX (Sigma, 0.5 mg/kg in saline) or yohimbine (Sigma, 0.5 mg/kg in saline). Seizure severity was scored by trained observers blind to genotype and/or treatment. The severity of seizure behaviors was scored on a scale of 0 to 7, with 0 representing normal behavior and 7 representing death (see, for example, Yang D D, Kuan C Y, Whitmarsh A J, Rincon M, Zheng T S, Davis R J, et al. Absence of excitotoxicity-induced apoptosis in the hippocampus of mice lacking the Jnk3 gene. Nature. 1997, 389 (6653): 865-70; and Cottingham C, Chen Y, Jiao K, and Wang Q. The antidepressant desipramine is an arrestin-biased ligand at the alpha (2A)-adrenergic receptor driving receptor down-regulation in vitro and in vivo. J Biol Chem. 2011, 286 (41): 36063-75). To induce seizures with pentylenetetrazole (PTZ), mice were injected (i.p.) with PTZ at 40 mg/kg (dissolved in saline), with or without 8-Cyclopentyl-1,3-dipropylxanthine (DPCPX). Seizure severity was scored every 4 min for 30 min.
# kainate-induced seizures [2] = experiment: Kainate-induced seizure in mice given peptide (icv or intranasal); assay type: in vivo
# Protocol: as §1, with “To induce seizures with pentylenetetrazole (PTZ), mice were injected (i.p.) with PTZ at 40 mg/kg (dissolved in saline), with or without 8-Cyclopentyl-1,3-dipropylxanthine (DPCPX).” left out, “min. […]” for “min.”
# kainate-induced seizures [3] = experiment: Kainate-induced seizure in WT and Rgs4-/- mice; assay type: in vivo
# Protocol: as §1, with “To induce seizures with pentylenetetrazole (PTZ), mice were injected (i.p.) with PTZ at 40 mg/kg (dissolved in saline), with or without 8-Cyclopentyl-1,3-dipropylxanthine (DPCPX).” left out
# [4] = system: spontaneous epileptic spikes in APP/PS1 mice; experiment: EEG recording of spontaneous epileptic activity in APP/PS1 mice; assay type: in vivo; conditions: intranasal peptide plus i.p. DPCPX
# Protocol: Implantation of electrodes for EEG recordings was performed under isoflurane anesthesia (4.5% for induction, approximately 2% for maintenance). In brief, 1 mm stainless steel electrodes (P1 Technologies, Roanoke, VA) were implanted into the primary somatosensory cortex at 1.8, 0.02, 1 (AP, ML, DV), and reference electrodes anterior to the bregma were implanted subdurally through small holes drilled in the skull. These electrodes were held in place with Dental cement kit (Stoelting), C&B Metabond Quick Adhesive Cement System (Parkell). The ground electrode was sutured in the cervical paraspinous area. […] EEG activity was recorded for 20 hrs using Biopac Systems amplifiers (Biopac Systems EEG100C) and AcqKnowledge 4.2 EEG Acquisition and analyzed with the Reader Software (Biopac Systems).
# A total of 150 hrs of data was analyzed, 54 hrs for nTg mice and 96 hrs for APP/PS1 transgenic mice. Six hrs of recording were analyzed for each animal. […] When p-operator algorithm detected a spike, all signals were visually inspected to include in the analysis only those that were true positives in order to avoid non-epileptic artifacts caused by electrical noise (e.g., grooming) during spike selection. Spectral content of EEG signals were calculated using short-time Fourier transform (FFT).
# [5] = system: hippocampal CA3-CA1 synapses; experiment: fEPSP recording in acute hippocampal slices; assay type: cell-based, mice
# [6] = system: primary hippocampal neurons; experiment: Glutamate-induced cell death in primary hippocampal neurons; assay type: cell-based, mice; conditions: 100 μM glutamate plus 10 μM R-PIA
# Protocol: Primary hippocampal culture was performed as described previously (Chen Y, Liu Y, Cottingham C, McMahon L, Jiao K, Greengard P, et al. Neurabin scaffolding of adenosine receptor and RGS4 regulates anti-seizure effect of endogenous adenosine. J Neurosci. 2012, 32 (8): 2683-95). […] In brief, hippocampal neurons were cultured in 24-well plates for 13-14 days in vitro and treated with (1) vehicle, (2) 100 μM glutamate alone, (3) 100 μM glutamate plus 10 μM R-PIA, (4) 100 μM glutamate, 10 μM R-PIA, plus 30 μM LY294002, for 30 min at 37° C. Neurons were then washed twice, and incubated with regular growth medium at 37° C. for an additional 24 hrs. Neurons were stained with 4 μM calcein-AM and 4 μM EthD-1 in DPBS and mounted for imaging under a fluorescence microscope.
# [7] = system: Akt phosphorylation at Thr 308; experiment: A1R-mediated Akt activation in primary hippocampal neurons (Western blot); assay type: cell-based, mice
# Protocol: Primary hippocampal neurons derived from WT or neurabin deficiency (Ppp1r9a^−/−) mice were treated with R-PIA at the indicated concentrations. Representative blots of phospho-Akt (pAkt, Thr308) are shown.
# Primary hippocampal neurons derived from WT or neurabin deficiency (Ppp1r9a^−/−) mice were treated with R-PIA at the indicated concentrations. Quantitation of phospho-Akt (pAkt, Thr308) is shown. *** represents p<0.001 by two-way ANOVA. N=4/group.
# WT and Ppp1r9a^−/− neurons were stimulated with 1 μM R-PIA for the indicated time durations. Representative blots of pAkt are shown.
# WT and Ppp1r9a^−/− neurons were stimulated with 1 μM R-PIA for the indicated time durations. Quantitation of pAkt is shown. * represents p<0.05; ** represents p<0.01; **** represents p<0.0001 by two-way ANOVA for multiple comparisons. N=4/group. Data are shown as mean±SEM.
molecule,measurement,setting,value
"3i loop peptide: peptide carrying the sequence of the A1R 3i loop (aa202-235) (EVFYLIRKQLNKKVSASSGDPQKYYGKELKIAKS; UniProt P30542 202-235, looked up, fragment)",direct interaction of A1R (aa202-326) with Nrb331-453,[1],no effect
"CCCn1c(=O)c2[nH]c(C3CCCC3)nc2n(CCC)c1=O [DPCPX, 8-Cyclopentyl-1,3-dipropylxanthine]",PTZ-induced seizure severity on co-treatment with DPCPX,"PTZ-induced seizures; WT and neurabin null mice, vs PTZ alone",continued to progress to a much more severe level
same,death after combined treatment with PTZ and DPCPX,"PTZ-induced seizures; both genotypes (WT, Ppp1r9a-/-)",more than 55%
same,anti-seizure effect of A1R-CT on co-treatment with DPCPX,kainate-induced seizures [2]; icv peptide,no longer observed
same,anti-seizure effect of TAT-A1R-CT peptide on co-treatment with DPCPX,kainate-induced seizures [2]; intranasal peptide,abolished
same,effect of A1R blockade on seizure severity and mortality rate,"kainate-induced seizures [3]; Rgs4-/- mice, kainate plus DPCPX, to a level similar to WT",increased the seizure severity and mortality rate
same,effect of TAT-A1R-CT on epileptic activities with DPCPX,[4],failed to reduce epileptic activities
"C1CCc2nnnn2CC1 [PTZ, pentylenetetrazole]",PTZ-induced lethality within 40 minutes,"PTZ-induced seizures; WT mice, PTZ alone",About 10%
"A1R-CT: peptide carrying the sequence of the A1R C-tail (aa293-326), without TAT fusion (QKFRVTFLKIWNDHFRCQPAPPIDEDLPEERPDD; UniProt P30542 293-326, looked up, fragment)",direct interaction of A1R (aa202-326) with Nrb331-453,[1],markedly reduced
"CC(Cc1ccccc1)Nc1ncnc2c1ncn2[C@@H]1O[C@H](CO)[C@@H](O)[C@H]1O (single isomer, unassigned; (-)) [R-PIA, (−)-N6-(2-Phenylisopropyl) adenosine]",inhibition of baseline transmission,"[5]; WT mice slices, 100 nM",about 75%
same,inhibition of fEPSP,"[5]; WT mice slices, 10, 30, 100 nM",dose-dependently inhibited
same,inhibition of fEPSP vs WT slices,"[5]; slices from Ppp1r9a-/- or Rgs4-/- mice, same concentration (10 nM, FIG. 2E-F)",significantly higher level of inhibition
same,effect on glutamate-induced neuronal death,[6],protective effect
same,Akt phosphorylation at Thr 308,[7]; WT neurons,dose-dependent increase
same,Akt activation over time,"[7]; WT neurons, 1 μM R-PIA",desensitized after 30 min stimulation
same,phospho-Akt levels at 30 min,"[7]; neurons lacking neurabin, 1 μM R-PIA",no apparent reduction
same,Akt phosphorylation vs WT neurons,"[7]; neurons lacking neurabin, same dose",significantly higher level of Akt phosphorylation
C=C(C)[C@H]1CN[C@H](C(=O)O)[C@H]1CC(=O)O [kainate],mortality after kainate,"kainate-induced seizures [3]; WT mice, kainate 20 mg/kg",over 40%
